Results reported in patent US8912200B2, “Alkynyl substituted pyrimidinyl-pyrroles active as kinases inhibitors” (Nerviano Medical Sciences S.R.L., priority 2011, dated 2014).

Key:
[1] = test system: JAK2 dependent human megakaryoblastic leukemia cell line SET-2; assay: Cell proliferation assay (CellTiter-Glo, 72 hours); format: cell-based; conditions: Homo sapiens, SET-2 cells
Procedure: The JAK2 dependent human megakaryoblastic leukemia cell line SET-2 (DSMZ, Braunschweig GERMANY) and the JAK2 independent human chronic myelogenous leukaemia cell line K562 (ECACC, Wiltshire, UK) were cultured in RPMI-1640 medium-Glutamax (Gibco BRL, Gaithesburg, Md., USA), supplemented with 10% fetal bovine serum (FBS) at 37° C. and 5% CO2.
Cell Proliferation Assay:
Approximately 5×10^3 cells were plated into 384 microtiter plate wells in 50 μL of growth media with different concentrations of inhibitors. The cells were incubated at 37° C. and 5% CO2 for 72 hours, then the plates were processed using CellTiter-Glo assay (Promega, Madison, Wis., USA) following the manufacturer's instruction. Briefly 25 μL/well reagent solution is added to each well and after 5 minutes shaking the micro-plates are read by Envision luminometer (PerkinElmer, Waltham, Mass., USA).
Data are analyzed by Symix Assay Explorer software (Symix Technologies Inc.) that provides sigmoidal fitting algorithm of the 8 points dilutions curves for IC50 determination.

JAK2 kinase domain = target: T1, JAK2 kinase domain (Homo sapiens, UniProt O60674); assay: Biochemical assay for inhibitors of JAK kinase activity (JAK2, 33P-γ-ATP/dowex resin); conditions: JAK2 kinase domain 1 nM, 60 μM ATP
T1 construct: commercially available JAK2 kinase domain; purchased Invitrogen, Eugene, Oreg
Description: Biochemical Assay for Inhibitors of JAK Kinase Activity
Specific JAK2, JAK1 or JAK3 peptide substrates are trans-phosphorylated by JAK kinases in the presence of ATP traced with 33P-γ-ATP. At the end of the phosphorylation reaction, the unreacted ATP, cold and radioactive, is captured by an excess of dowex ion exchange resin that eventually settles by gravity to the bottom of the reaction plate. The supernatant is subsequently withdrawn and transferred into a counting plate that is then evaluated by β-counting.
500 g of wet resin (SIGMA, custom prepared resin DOWEX 1×8 200-400 mesh, 2.5 Kg) are weighed out and diluted 2 to 1 in 150 mM sodium formate, pH 3.00. The resin is allowed to settle down overnight and then the supernatant is discarded. After three washes as above over a couple of days, the resin is allowed to settle and two volumes (with respect to the resin volume) of 150 mM sodium formate buffer are added.
Kinase buffer was composed of 50 mM HEPES pH 7.5 containing 10 mM MgCl2, 2.5 mM DTT, 10 μM Na3VO4 and 0.2 mg/mL BSA.
JAK2 Specific Assay Conditions
The JAK2 kinase assay was run with a final enzyme concentration of 1 nM, in the presence of 60 μM ATP, 3 nM 33P-γ-ATP and 64 μM of substrate BioDBn*306 (Aminoacid sequence: LPLDKDYYVVREPGQ—SEQ ID NO: 1). The peptidic substrate was purchased from American Peptide Company (Sunnyvale, Calif.).
For IC50 determination, test compounds are received as a 1 mM solution in 100% DMSO, distributed into 96 well plates: compounds are then plated into the first column of a microtiter plate (A1 to G1), 100 μL/well.
An automated station for serial dilutions (Biomek FX, Beckman) is used for producing 1:3 dilutions in 100% DMSO, from line A1 to A10, and for all the compounds in the column. Moreover, 4-5 copies of daughter plates are prepared by reformatting 5 μL of this first set of 100% DMSO dilution plates into 384 deep well-plates: one of these plates with the serial dilutions of test compounds will be thawed the day of the experiments, reconstituted at a 3× concentration with water and used in the IC50 determination assays. In a standard experiment, the highest concentration (3×) of all compounds is 30 μM, while the lowest one is 1.5 nM. Each 384 well-plate will contain at least one curve of the standard inhibitor staurosporine and reference wells (total enzyme activity vs. no enzymatic activity) for the Z′ and signal to background evaluation.
384-well plates, V bottom (test plates) are prepared with 5 μL of the compound dilution (3×) and then placed onto a PlateTrak 12 robotized station (Perkin Elmer; the robot has one 384-tip pipetting head for starting the assay plus one 96-tip head for dispensing the resin) together with one reservoir for the Enzyme mix (3×) and one for the ATP mix (3×). At the start of the run, the robot aspirates 5 μL of ATP mix, makes an air gap inside the tips (3 μl) and aspirates 5 μL of JAK2 mix. The following dispensation into the plates plus 3 cycles of mixing, done by the robot itself, starts the kinase reaction. At this point, the correct concentrations are restored for all the reagents. The robot incubates the plates for 60 minutes at room temperature, and then stops the reaction by pipetting 60 μL of dowex resin suspension into the reaction mix. In order to avoid tip clogging, wide bore tips are used to dispense the resin suspension. Three cycles of mixing are done immediately after the addition of the resin. Another mixing cycle is performed after all the plates are stopped, this time using normal tips: the plates are then allowed to rest for about one hour in order to allow resin sedimentation. At this point, 27 μL of the supernatant are transferred into 384-Optiplates (Perkin-Elmer), with 50 μL of Microscint 40 (Perkin-Elmer); after 5 min of orbital shaking the plates are read on a Perkin-Elmer Top Count radioactivity counter. […]

T1 sequence (O60674 849-1124 limits assumed): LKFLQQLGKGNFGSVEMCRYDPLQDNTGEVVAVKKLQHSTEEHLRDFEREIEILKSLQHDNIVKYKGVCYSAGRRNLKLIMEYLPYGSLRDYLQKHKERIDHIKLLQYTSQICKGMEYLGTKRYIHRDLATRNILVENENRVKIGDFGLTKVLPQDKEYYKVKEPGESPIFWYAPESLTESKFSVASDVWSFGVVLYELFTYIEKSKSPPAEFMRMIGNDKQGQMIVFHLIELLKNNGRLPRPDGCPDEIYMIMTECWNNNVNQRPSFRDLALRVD

| SMILES | IC50 [1] [nM] | IC50 (JAK2 kinase domain) [nM] |
| --- | --- | --- |
| Cc1ccc(Cl)cc1-c1[nH]c(-c2nc(N)ncc2C#Cc2ccccc2NCCO)cc1C(N)=O [compound 43, 5-[2-Amino-5-({2-[(2-hydroxyethyl)amino]phenyl}ethynyl)pyrimidin-4-yl]-2-(5-chloro-2-methylphenyl)-1H-pyrrole-3-carboxamide] | 960 | 13 |
| Cc1ccc(Cl)cc1-c1[nH]c(-c2nc(N)ncc2C#Cc2ccc(Br)cc2)cc1C(N)=O [compound 40, 5-{2-Amino-5-[(4-bromophenyl)ethynyl]pyrimidin-4-yl}-2-(5-chloro-2-methylphenyl)-1H-pyrrole-3-carboxamide] | 2480 | 85 |
| COc1ccccc1C#Cc1cnc(N)nc1-c1cc(C(N)=O)c(-c2cc(Cl)ccc2C)[nH]1 [compound 5, 5-{2-Amino-5-[(2-methoxyphenyl)ethynyl]pyrimidin-4-yl}-2-(5-chloro-2-methylphenyl)-1H-pyrrole-3-carboxamide] | 750 | 5 |
| Cc1ccc(Cl)cc1-c1[nH]c(-c2nc(N)ncc2C#Cc2ccccc2)cc1C(N)=O [compound 1, 5-[2-Amino-5-(phenylethynyl)pyrimidin-4-yl]-2-(5-chloro-2-methylphenyl)-1H-pyrrole-3-carboxamide] | 300 | 2 |
| Cc1ccc(Cl)cc1-c1[nH]c(-c2nc(N)ncc2C#Cc2ccc(N3CCC(N4CCCC4)CC3)cc2)cc1C(N)=O [compound 26, 5-[2-Amino-5-({4-[4-(pyrrolidin-1-yl)piperidin-1-yl]phenyl}ethynyl)pyrimidin-4-yl]-2-(5-chloro-2-methylphenyl)-1H-pyrrole-3-carboxamide] | 290 | 1 |
| Cc1ccc(Cl)cc1-c1[nH]c(-c2nc(N)ncc2C#Cc2ccc(CN3CCN(C)CC3)cc2)cc1C(N)=O [compound 65, 5-[2-Amino-5-({4-[(4-methylpiperazin-1-yl)methyl]phenyl}ethynyl)pyrimidin-4-yl]-2-(5-chloro-2-methylphenyl)-1H-pyrrole-3-carboxamide] | 80 | 1 |
| Cc1ccc(Cl)cc1-c1[nH]c(-c2ccnc(N)n2)c(C#Cc2cccc(NC3CCN(C)CC3)c2)c1C(N)=O [compound 80, 5-(2-Aminopyrimidin-4-yl)-2-(5-chloro-2-methylphenyl)-4-({3-[(1-methylpiperidin-4-yl)amino]phenyl}ethynyl)-1H-pyrrole-3-carboxamide] | 780 | 6 |
| Cc1ccc(Cl)cc1-c1[nH]c(-c2nc(N)ncc2C#Cc2cccnc2)cc1C(N)=O [compound 53, 5-[2-Amino-5-(pyridin-3-ylethynyl)pyrimidin-4-yl]-2-(5-chloro-2-methylphenyl)-1H-pyrrole-3-carboxamide] | 110 | 2 |
| Cc1ccc(Cl)cc1-c1[nH]c(-c2nc(N)ncc2C#CCN(C)C)cc1C(N)=O [compound 44, 5-{2-Amino-5-[3-(dimethylamino)prop-1-yn-1-yl]pyrimidin-4-yl}-2-(5-chloro-2-methylphenyl)-1H-pyrrole-3-carboxamide] | 460 | 11 |
| Cc1ccc(Cl)cc1-c1[nH]c(-c2nc(N)ncc2C#Cc2ccccc2NCCN(C)C)cc1C(N)=O [compound 45, 5-{2-Amino-5-[(2-{[2-(dimethylamino)ethyl]amino}phenyl)ethynyl]pyrimidin-4-yl}-2-(5-chloro-2-methylphenyl)-1H-pyrrole-3-carboxamide] | 560 | 10 |
| Cc1ccc(Cl)cc1-c1[nH]c(-c2nc(N)ncc2C#Cc2ccc(N3CCC[C@H]3CN3CCCC3)cc2)cc1C(N)=O [compound 31, 5-[2-Amino-5-({4-[(2S)-2-(pyrrolidin-1-ylmethyl)pyrrolidin-1-yl]phenyl}ethynyl)pyrimidin-4-yl]-2-(5-chloro-2-methylphenyl)-1H-pyrrole-3-carboxamide] | 310 | 1 |
